From patent publication US20240239752A1, “BICYCLIC HETEROAROMATIC INHIBITORS OF KLK5” (BioCryst Pharmaceuticals, Inc., priority 2021, published 2024)

Molecular target: T1, recombinant human KLK5 (Homo sapiens, UniProt Q9Y337)
T1 construct: purchased Novoprotein or R&D Systems C415 or 1108-SE
T1 sequence (Q9Y337 23-293): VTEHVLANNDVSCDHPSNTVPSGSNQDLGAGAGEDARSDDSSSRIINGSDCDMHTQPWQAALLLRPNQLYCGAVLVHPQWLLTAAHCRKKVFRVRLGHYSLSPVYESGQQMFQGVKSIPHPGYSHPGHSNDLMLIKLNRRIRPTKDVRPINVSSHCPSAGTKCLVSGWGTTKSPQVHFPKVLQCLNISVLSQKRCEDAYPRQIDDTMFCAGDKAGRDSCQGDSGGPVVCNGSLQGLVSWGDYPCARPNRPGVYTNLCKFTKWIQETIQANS
Assay: Kallikrein (KLK) 5 enzymatic assay (Boc-VPR-AMC fluorogenic substrate)
Format: biochemical
Conditions: recombinant human KLK5 0.1 μg/well, Boc-VPR-AMC 100 μM, pH 7.5, room temperature, 1% DMSO; tested a minimum of three times
In short: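 Recombinant human KLK5 (0.1 μg/well) was preincubated with compound at room temperature in 0.1 M NaH2PO4, pH 7.5, 1% DMSO, then started with 100 μM Boc-VPR-AMC. The rate was followed at 380/460 nm, and IC50 came from percent inhibition relative to enzyme alone, with at least three runs.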

IC50, < 1 µM:
N#Cc1ccc(CC(=O)O)c(O[C@@H]2CCc3ccc(-c4cccc5c(N)nccc45)cc32)c1 [Compound 424b, (R)-2-(2-((6-(1-aminoisoquinolin-5-yl)-2,3-dihydro-1H-inden-1-yl)oxy)-4-cyanophenyl)acetic acid]
Cc1cccc(OCc2nn(CC3CCOC3)c3ccc(-c4ccc5ccnc(N)c5c4)cc23)c1CC(=O)O (stereo not shown) [Compound 95b, 2-(2-((5-(1-aminoisoquinolin-7-yl)-1-((tetrahydrofuran-3-yl)methyl)-1H-indazol-3-yl)methoxy)-6-methylphenyl)acetic acid]
CCOC(=O)N1CC[C@H](n2nc(COc3ccccc3CC(=O)O)c3cc(-c4ccc5ccnc(N)c5c4)ccc32)C1 [Compound 346b, (S)-2-(2-((5-(1-aminoisoquinolin-7-yl)-1-(1-(ethoxycarbonyl)pyrrolidin-3-yl)-1H-indazol-3-yl)methoxy)phenyl)acetic acid]
Cc1cccc(OCc2nn(C3CCOC3)c3ccc(-c4ccc5ccnc(N)c5c4)cc23)c1CC(=O)O (stereo not shown) [Compound 248b, 2-(2-((5-(1-aminoisoquinolin-7-yl)-1-(tetrahydrofuran-3-yl)-1H-indazol-3-yl)methoxy)-6-methylphenyl)acetic acid]
CC(C)OC(=O)N1CC[C@H](n2nc(COc3ccccc3CC(=O)O)c3cc(-c4cccc5c(N)nccc45)ccc32)C1 [Compound 359b, (S)-2-(2-((5-(1-aminoisoquinolin-5-yl)-1-(1-(isopropoxycarbonyl)pyrrolidin-3-yl)-1H-indazol-3-yl)methoxy)phenyl)acetic acid]
CC(C)OC(=O)N1CC[C@H](n2nc(COc3ccccc3CC(=O)O)c3cc(-c4ccc5ccnc(N)c5c4)ccc32)C1 [Compound 358c, (S)-2-(2-((5-(1-aminoisoquinolin-7-yl)-1-(1-(isopropoxycarbonyl)pyrrolidin-3-yl)-1H-indazol-3-yl)methoxy)phenyl)acetic acid]
Nc1nccc2ccc(-c3ccc4c(c3)c(COc3ccccc3CC(=O)O)nn4-c3ccccc3)cc12 [Compound 201c, 2-(2-((5-(1-aminoisoquinolin-7-yl)-1-phenyl-1H-indazol-3-yl)methoxy)phenyl)acetic acid]
CC1(C)Cc2ccc(-c3cccc4c(N)nccc34)cc2C1Oc1ccccc1CC(=O)O (stereo not shown) [Compound 437f, 2-(2-((6-(1-aminoisoquinolin-5-yl)-2,2-dimethyl-2,3-dihydro-1H-inden-1-yl)oxy)phenyl)acetic acid]
COCCC1(CCOC)CC(Oc2ccccc2CC(=O)O)c2cc(-c3ccc4ccnc(N)c4c3)ccc21 (stereo not shown) [Compound 446f, 2-(2-((6-(1-aminoisoquinolin-7-yl)-3,3-bis(2-methoxyethyl)-2,3-dihydro-1H-inden-1-yl)oxy)phenyl)acetic acid]
Nc1nccc2c(-c3ccc4c(c3)c(COc3ccccc3CC(=O)O)nn4CC3CCC3)cccc12 [Compound 252h, 2-(2-((5-(1-aminoisoquinolin-5-yl)-1-(cyclobutylmethyl)-1H-indazol-3-yl)methoxy)phenyl)acetic acid]
COc1ccc(CC(=O)O)c(OCc2nn(C)c3ccc(-c4cccc(C(=N)N)c4)cc23)c1 [Compound 101b, 2-(2-((5-(3-carbamimidoylphenyl)-1-methyl-1H-indazol-3-yl)methoxy)-4-methoxyphenyl)acetic acid]

IC50, 1 to 10 µM:
CC1(C)Cc2ccc(-c3ccc4ccnc(N)c4c3)cc2C1Oc1cc(F)ccc1CC(=O)O (stereo not shown) [Compound 439b, 2-(2-((6-(1-aminoisoquinolin-7-yl)-2,2-dimethyl-2,3-dihydro-1H-inden-1-yl)oxy)-4-fluorophenyl)acetic acid]
CC(C)n1nc(COc2ccccc2CC(=O)O)c2cc(-c3cccc4c3OCC4N)ccc21 (stereo not shown) [Compound 212c, 2-(2-((5-(3-amino-2,3-dihydrobenzofuran-7-yl)-1-isopropyl-1H-indazol-3-yl)methoxy)phenyl)acetic acid]
